One test has as its target BRG-1 (Homo sapiens, UniProt P51532). As to the kind of experiment: ATPase catalytic activity of BRG-1 (ADP-Glo in vitro biochemical assay). The settings on record: for BRG1 Max % Inhibition: Table 6. In general terms: In ADP-Glo the light output rises with the ADP produced.
The next test concerns the target BRM (Homo sapiens, UniProt P51531). As to the kind of experiment: ATPase catalytic activity of BRM (ADP-Glo in vitro biochemical assay). The settings on record: for BRM Max % Inhibition: Table 6.

From patent publication US11497752B2, “Compounds and uses thereof” (Foghorn Therapeutics Inc., priority 2018, dated 2022) come the findings set out here.

A value given as a limit tells only on which side of the number the result lay.

Sequence of BRM (P51531 whole entry): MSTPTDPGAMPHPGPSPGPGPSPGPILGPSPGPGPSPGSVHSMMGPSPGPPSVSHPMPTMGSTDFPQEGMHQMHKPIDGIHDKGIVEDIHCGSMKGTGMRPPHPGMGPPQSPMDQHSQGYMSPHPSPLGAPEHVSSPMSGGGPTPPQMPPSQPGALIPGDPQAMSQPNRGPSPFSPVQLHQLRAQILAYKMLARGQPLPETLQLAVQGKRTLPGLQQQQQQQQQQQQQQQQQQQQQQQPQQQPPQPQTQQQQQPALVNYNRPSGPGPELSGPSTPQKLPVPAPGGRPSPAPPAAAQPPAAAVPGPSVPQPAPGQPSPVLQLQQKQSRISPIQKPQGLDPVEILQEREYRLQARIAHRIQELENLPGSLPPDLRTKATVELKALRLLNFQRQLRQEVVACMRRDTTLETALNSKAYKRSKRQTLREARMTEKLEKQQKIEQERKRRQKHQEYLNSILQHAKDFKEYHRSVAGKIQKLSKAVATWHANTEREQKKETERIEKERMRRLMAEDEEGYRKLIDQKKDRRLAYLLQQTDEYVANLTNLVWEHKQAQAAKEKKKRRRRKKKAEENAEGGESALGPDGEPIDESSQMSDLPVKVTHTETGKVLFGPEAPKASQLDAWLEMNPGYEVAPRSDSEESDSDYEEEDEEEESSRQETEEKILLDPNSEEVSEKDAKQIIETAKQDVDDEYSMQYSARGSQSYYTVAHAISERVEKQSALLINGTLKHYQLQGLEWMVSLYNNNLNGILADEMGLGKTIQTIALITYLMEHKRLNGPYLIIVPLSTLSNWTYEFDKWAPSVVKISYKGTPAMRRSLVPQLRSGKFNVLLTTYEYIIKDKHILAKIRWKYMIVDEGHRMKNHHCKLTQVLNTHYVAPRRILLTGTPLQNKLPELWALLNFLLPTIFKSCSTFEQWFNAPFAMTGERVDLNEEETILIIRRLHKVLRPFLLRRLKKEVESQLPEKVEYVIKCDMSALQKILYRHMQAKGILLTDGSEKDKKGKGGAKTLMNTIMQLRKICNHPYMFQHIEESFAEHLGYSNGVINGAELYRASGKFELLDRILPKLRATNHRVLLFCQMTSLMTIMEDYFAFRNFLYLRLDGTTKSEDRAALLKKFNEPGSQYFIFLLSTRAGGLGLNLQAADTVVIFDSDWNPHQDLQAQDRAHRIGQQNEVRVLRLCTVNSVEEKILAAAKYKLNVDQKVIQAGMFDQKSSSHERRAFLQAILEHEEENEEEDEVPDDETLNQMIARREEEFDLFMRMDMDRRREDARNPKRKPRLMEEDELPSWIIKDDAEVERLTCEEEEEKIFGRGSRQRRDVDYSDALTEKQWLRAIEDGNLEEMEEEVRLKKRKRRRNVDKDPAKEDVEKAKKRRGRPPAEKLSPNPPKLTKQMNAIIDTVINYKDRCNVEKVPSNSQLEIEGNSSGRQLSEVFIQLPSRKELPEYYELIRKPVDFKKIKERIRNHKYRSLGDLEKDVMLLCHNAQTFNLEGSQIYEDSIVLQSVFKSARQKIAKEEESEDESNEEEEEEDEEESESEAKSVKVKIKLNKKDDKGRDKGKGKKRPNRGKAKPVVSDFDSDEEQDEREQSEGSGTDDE
Sequence of BRG-1 (P51532 whole entry): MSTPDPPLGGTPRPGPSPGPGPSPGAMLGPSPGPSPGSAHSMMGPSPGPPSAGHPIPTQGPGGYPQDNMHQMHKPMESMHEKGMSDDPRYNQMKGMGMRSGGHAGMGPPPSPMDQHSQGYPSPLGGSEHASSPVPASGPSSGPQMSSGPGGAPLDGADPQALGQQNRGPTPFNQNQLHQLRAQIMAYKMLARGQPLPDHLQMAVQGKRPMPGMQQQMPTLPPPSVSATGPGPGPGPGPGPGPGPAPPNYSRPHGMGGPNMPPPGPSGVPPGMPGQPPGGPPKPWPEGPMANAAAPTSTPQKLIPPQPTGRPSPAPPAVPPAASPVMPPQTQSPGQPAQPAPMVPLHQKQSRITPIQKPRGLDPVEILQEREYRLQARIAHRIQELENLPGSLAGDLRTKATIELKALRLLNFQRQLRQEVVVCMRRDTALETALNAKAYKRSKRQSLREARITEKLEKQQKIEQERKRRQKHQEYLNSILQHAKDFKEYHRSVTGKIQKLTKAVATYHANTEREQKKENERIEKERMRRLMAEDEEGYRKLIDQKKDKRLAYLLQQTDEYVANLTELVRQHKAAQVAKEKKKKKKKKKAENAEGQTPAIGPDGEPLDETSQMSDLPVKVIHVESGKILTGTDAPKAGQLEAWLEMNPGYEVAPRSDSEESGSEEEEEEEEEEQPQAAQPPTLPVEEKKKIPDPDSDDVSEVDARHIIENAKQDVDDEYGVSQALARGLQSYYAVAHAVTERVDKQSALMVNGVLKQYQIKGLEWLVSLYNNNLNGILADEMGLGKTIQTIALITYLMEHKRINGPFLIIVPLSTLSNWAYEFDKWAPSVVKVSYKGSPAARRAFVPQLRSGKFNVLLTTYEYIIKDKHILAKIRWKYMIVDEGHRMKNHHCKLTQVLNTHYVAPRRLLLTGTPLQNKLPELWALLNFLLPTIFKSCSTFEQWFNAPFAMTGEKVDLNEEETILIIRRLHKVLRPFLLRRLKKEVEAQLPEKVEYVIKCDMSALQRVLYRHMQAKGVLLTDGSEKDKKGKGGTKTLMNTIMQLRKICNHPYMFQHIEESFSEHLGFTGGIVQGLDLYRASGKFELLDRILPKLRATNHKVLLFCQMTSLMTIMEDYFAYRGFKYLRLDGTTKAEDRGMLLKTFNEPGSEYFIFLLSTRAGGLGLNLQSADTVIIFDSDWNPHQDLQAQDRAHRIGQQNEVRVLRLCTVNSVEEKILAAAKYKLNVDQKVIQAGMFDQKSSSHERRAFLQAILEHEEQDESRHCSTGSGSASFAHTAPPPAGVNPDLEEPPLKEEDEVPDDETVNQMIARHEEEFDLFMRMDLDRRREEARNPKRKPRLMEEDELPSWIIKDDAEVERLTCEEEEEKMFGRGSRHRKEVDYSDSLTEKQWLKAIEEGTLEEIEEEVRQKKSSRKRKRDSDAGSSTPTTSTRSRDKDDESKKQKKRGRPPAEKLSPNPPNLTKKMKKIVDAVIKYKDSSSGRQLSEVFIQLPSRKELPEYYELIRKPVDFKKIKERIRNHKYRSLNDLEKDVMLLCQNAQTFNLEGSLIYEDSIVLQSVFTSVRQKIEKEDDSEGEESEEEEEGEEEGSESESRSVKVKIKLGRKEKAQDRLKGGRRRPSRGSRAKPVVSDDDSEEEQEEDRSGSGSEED

With `Cc1ccc(-c2csc(NC(=O)CNC(=O)c3ccc(N)cc3)n2)cc1-c1ccncc1` [Compound 188, 4-amino-N-[2-[[4-[4-methyl-3-(4-pyridyl)phenyl]thiazol-2-yl]amino]-2-oxo-ethyl]benzamide], at BRG-1, the 50% inhibitory concentration (IC50) is < 100 nM and the “BRG1 Max % Inhibition” value is recorded as >80%. Further, at BRM, the half-maximal inhibitory concentration (IC50) is < 100 nM and the “BRM Max % Inhibition” value was >95%.
Turning to `CN(C)CCNc1cc(-c2cccc(-c3csc(NC(=O)CNC(=O)c4ccc(N)cc4)n3)c2)ccn1` [Compound 189, 4-amino-N-[2-[[4-[3-[2-[2-(dimethylamino)ethylamino]-4-pyridyl]phenyl]thiazol-2-yl]amino]-2-oxo-ethyl]benzamide], at BRG-1, the IC50 was in the range of 100 to 1000 nM and the “BRG1 Max % Inhibition” value is given as >90%. Besides, on BRM, the half-inhibitory concentration (IC50) was in the range of 100 to 1000 nM and the “BRM Max % Inhibition” value is >90%.
As for `CN1CCN(c2cc(-c3cccc(-c4csc(NC(=O)CNC(=O)c5ccc(N)cc5)n4)c3)ccn2)CC1` [Compound 190, 4-amino-N-[2-[[4-[3-[2-(4-methylpiperazin-1-yl)-4-pyridyl]phenyl]thiazol-2-yl]amino]-2-oxo-ethyl]benzamide], on BRG-1, the IC50 lay in the range of 100 to 1000 nM and the “BRG1 Max % Inhibition” value is listed as >80%. Moreover, on BRM, the IC50 was 100 to 1000 nM and the “BRM Max % Inhibition” value is reported as >80%.
As to `CN(C)CCN(C)c1cc(-c2cccc(-c3csc(NC(=O)CNC(=O)c4ccc(N)cc4)n3)c2)ccn1` [Compound 191, 4-amino-N-[2-[[4-[3-[2-[2-(dimethylamino)ethyl-methyl-amino]-4-pyridyl]phenyl]thiazol-2-yl]amino]-2-oxo-ethyl]benzamide], on BRG-1, the concentration for half-maximal inhibition (IC50) lay in the range of 100 to 1000 nM and the “BRG1 Max % Inhibition” value is given as >95%. In addition, at BRM, the IC50 is < 100 nM and the “BRM Max % Inhibition” value was >95%.
On to `Nc1ccc(C(=O)NCC(=O)Nc2nc(-c3ccc4[nH]ncc4c3)cs2)cc1` [Compound 192], for which, on BRG-1, the half-maximal inhibitory concentration (IC50) was in the range of 100 to 1000 nM and the “BRG1 Max % Inhibition” value is reported as >90%. On BRM, the IC50 was 100 to 1000 nM and the “BRM Max % Inhibition” value was >90%.
Take `Nc1cnc(C(=O)NCC(=O)Nc2nc(-c3cccc(-c4ccncc4)c3)cs2)nc1` [Compound 193, 5-amino-N-[2-oxo-2-[[4-[3-(4-pyridyl)phenyl]thiazol-2-yl]amino]ethyl]pyrimidine-2-carboxamide]: on BRG-1, the IC50 lay in the range of 100 to 1000 nM and the “BRG1 Max % Inhibition” value is reported as >90%. Also, at BRM, the IC50 lay within 100 to 1000 nM and the “BRM Max % Inhibition” value is recorded as >80%.
Turning to `Cc1cnccc1-c1cccc(-c2csc(NC(=O)CNC(=O)c3ccc(N)cc3)n2)c1` [Compound 194, 4-amino-N-[2-[[4-[3-(3-methyl-4-pyridyl)phenyl]thiazol-2-yl]amino]-2-oxo-ethyl]benzamide], on BRG-1, the half-inhibitory concentration (IC50) was in the range of 100 to 1000 nM and the “BRG1 Max % Inhibition” value was >80%. At BRM, the 50% inhibitory concentration (IC50) was 100 to 1000 nM and the “BRM Max % Inhibition” value is recorded as >90%.
Consider `Cc1cc(-c2cccc(-c3csc(NC(=O)CNC(=O)c4ccc(N)cc4)n3)c2)ccn1` [Compound 195, 4-amino-N-[2-[[4-[3-(2-methyl-4-pyridyl)phenyl]thiazol-2-yl]amino]-2-oxo-ethyl]benzamide], for which, at BRG-1, the half-inhibitory concentration (IC50) is < 100 nM and the “BRG1 Max % Inhibition” value is >95%. At BRM, the 50% inhibitory concentration (IC50) was < 100 nM and the “BRM Max % Inhibition” value was >95%.
For the compound `CNCc1cc(-c2cccc(-c3csc(NC(=O)CNC(=O)c4ccc(N)cc4)n3)c2)ccn1` [Compound 196, 4-amino-N-[2-[[4-[3-[2-(methylaminomethyl)-4-pyridyl]phenyl]thiazol-2-yl]amino]-2-oxo-ethyl]benzamide], on BRG-1, the IC50 was 100 to 1000 nM and the “BRG1 Max % Inhibition” value is recorded as >90%. At BRM, the IC50 fell in the range of 100 to 1000 nM and the “BRM Max % Inhibition” value is listed as >95%.
Regarding `Nc1ccc(C(=O)NCC(=O)Nc2nc(-c3cccc(COc4ccncc4)c3)cs2)cc1` [Compound 197, 4-amino-N-[2-oxo-2-[[4-[3-(4-pyridyloxymethyl)phenyl]thiazol-2-yl]amino]ethyl]benzamide], at BRG-1, the IC50 was < 100 nM and the “BRG1 Max % Inhibition” value is listed as >80%. Moreover, at BRM, the half-inhibitory concentration (IC50) was < 100 nM and the “BRM Max % Inhibition” value was >90%.
Take `CC(C)(O)c1cccc(-c2csc(NC(=O)CNC(=O)c3ccc(N)cc3)n2)c1` [Compound 198, 4-amino-N-[2-[[4-[3-(1-hydroxy-1-methyl-ethyl)phenyl]thiazol-2-yl]amino]-2-oxo-ethyl]benzamide]: on BRG-1, the IC50 lay within 100 to 1000 nM and the “BRG1 Max % Inhibition” value is >60%. Also, at BRM, the IC50 fell in the range of 100 to 1000 nM and the “BRM Max % Inhibition” value was >80%.
`COc1cc(-c2cccc(-c3csc(NC(=O)CNC(=O)c4ccc(N)cn4)n3)c2)ccn1` [Compound 199, 5-amino-N-[2-[[4-[3-(2-methoxy-4-pyridyl)phenyl]thiazol-2-yl]amino]-2-oxo-ethyl]pyridine-2-carboxamide]: at BRG-1, the half-inhibitory concentration (IC50) fell in the range of 100 to 1000 nM and the “BRG1 Max % Inhibition” value is >95%. At BRM, the IC50 was 100 to 1000 nM and the “BRM Max % Inhibition” value is >95%.
In the case of `CN(CC(=O)O)c1cc(-c2cccc(-c3csc(NC(=O)CNC(=O)c4ccc(N)cc4)n3)c2)ccn1` [Compound 200, 2-[[4-[3-[2-[[2-[(4-aminobenzoyl)amino]acetyl]amino]thiazol-4-yl]phenyl]-2-pyridyl]-methyl-amino]acetic acid], on BRG-1, the IC50 was < 100 nM and the “BRG1 Max % Inhibition” value was >95%. Moreover, on BRM, the IC50 is < 100 nM and the “BRM Max % Inhibition” value is listed as >95%.
In the case of `CNC(=O)CN(C)c1cc(-c2cccc(-c3csc(NC(=O)CNC(=O)c4ccc(N)cc4)n3)c2)ccn1` [Compound 202, 4-amino-N-[2-[[4-[3-[2-[methyl-[2-(methylamino)-2-oxo-ethyl]amino]-4-pyridyl]phenyl]thiazol-2-yl]amino]-2-oxo-ethyl]benzamide], at BRG-1, the half-inhibitory concentration (IC50) was < 100 nM and the “BRG1 Max % Inhibition” value is reported as >95%. Further, at BRM, the half-maximal inhibitory concentration (IC50) is < 100 nM and the “BRM Max % Inhibition” value is given as >95%.
For `Nc1ccc(C(=O)NCC(=O)Nc2nc(-c3cccc(-c4ccnc(N5CCCCS5(=O)=O)c4)c3)cs2)cc1` [Compound 203, 4-amino-N-[2-[[4-[3-[2-(1,1-dioxothiazinan-2-yl)-4-pyridyl]phenyl]thiazol-2-yl]amino]-2-oxo-ethyl]benzamide], at BRG-1, the 50% inhibitory concentration (IC50) is 100 to 1000 nM and the “BRG1 Max % Inhibition” value was >80%. At BRM, the IC50 fell in the range of 100 to 1000 nM and the “BRM Max % Inhibition” value is >80%.
Take `CN1CCN(c2cccc(-c3csc(NC(=O)CNC(=O)c4ccc(N)cc4)n3)c2)CC1=O` [Compound 204, 4-amino-N-[2-[[4-[3-(4-methyl-3-oxo-piperazin-1-yl)phenyl]thiazol-2-yl]amino]-2-oxo-ethyl]benzamide]: on BRG-1, the IC50 lay within 100 to 1000 nM and the “BRG1 Max % Inhibition” value was >70%. At BRM, the IC50 was 100 to 1000 nM and the “BRM Max % Inhibition” value was >80%.
As to `CNC(=O)Cc1cc(-c2cccc(-c3csc(NC(=O)CNC(=O)c4ccc(N)cc4)n3)c2)ccn1` [Compound 205, 4-amino-N-[2-[[4-[3-[2-[2-(methylamino)-2-oxo-ethyl]-4-pyridyl]phenyl]thiazol-2-yl]amino]-2-oxo-ethyl]benzamide], on BRG-1, the IC50 was < 100 nM and the “BRG1 Max % Inhibition” value is >95%. Besides, at BRM, the IC50 is < 100 nM and the “BRM Max % Inhibition” value is on record as >95%.
With `CN(C)C(=O)CN(C)c1cc(-c2cccc(-c3csc(NC(=O)CNC(=O)c4ccc(N)cc4)n3)c2)ccn1` [Compound 206, 4-amino-N-[2-[[4-[3-[2-[[2-(dimethylamino)-2-oxo-ethyl]-methyl-amino]-4-pyridyl]phenyl]thiazol-2-yl]amino]-2-oxo-ethyl]benzamide], on BRG-1, the 50% inhibitory concentration (IC50) was in the range of 100 to 1000 nM and the “BRG1 Max % Inhibition” value was >95%. For the same compound, on BRM, the IC50 is 100 to 1000 nM and the “BRM Max % Inhibition” value was >95%.
In the case of `CC(C)c1cc(-c2cccc(-c3csc(NC(=O)CNC(=O)c4ccc(N)cc4)n3)c2)ccn1` [Compound 207, 4-amino-N-[2-[[4-[3-(2-isopropyl-4-pyridyl)phenyl]thiazol-2-yl]amino]-2-oxo-ethyl]benzamide], at BRG-1, the half-inhibitory concentration (IC50) is < 100 nM and the “BRG1 Max % Inhibition” value is >95%. For the same compound, on BRM, the half-inhibitory concentration (IC50) is < 100 nM and the “BRM Max % Inhibition” value is recorded as >95%.
Consider `Nc1ccc(C(=O)NCC(=O)Nc2nc(-c3cncc(-c4ccncc4)c3)cs2)cc1` [Compound 208, 4-amino-N-[2-oxo-2-[[4-[5-(4-pyridyl)-3-pyridyl]thiazol-2-yl]amino]ethyl]benzamide], for which, at BRG-1, the 50% inhibitory concentration (IC50) lay in the range of 100 to 1000 nM and the “BRG1 Max % Inhibition” value is listed as >80%. On BRM, the IC50 was in the range of 100 to 1000 nM and the “BRM Max % Inhibition” value is listed as >90%.
For the compound `COC(=O)C(C)(C)n1ccc(-c2cccc(-c3csc(NC(=O)CNC(=O)c4ccc(N)cc4)n3)c2)n1` [Compound 209, methyl 2-[3-[3-[2-[[2-[(4-aminobenzoyl)amino]acetyl]amino]thiazol-4-yl]phenyl]pyrazol-1-yl]-2-methyl-propanoate], on BRG-1, the concentration for half-maximal inhibition (IC50) is < 100 nM and the “BRG1 Max % Inhibition” value is >95%. On BRM, the IC50 is < 100 nM and the “BRM Max % Inhibition” value is on record as >95%.
Turning to `Nc1ccc(C(=O)NCC(=O)Nc2nc(-c3cccc(-c4ccn(CC(=O)O)n4)c3)cs2)cc1` [Compound 210, 2-[3-[3-[2-[[2-[(4-aminobenzoyl)amino]acetyl]amino]thiazol-4-yl]phenyl]pyrazol-1-yl]acetic acid], on BRG-1, the IC50 was in the range of 100 to 1000 nM and the “BRG1 Max % Inhibition” value is on record as >80%. On BRM, the IC50 fell in the range of 100 to 1000 nM and the “BRM Max % Inhibition” value is given as >95%.
`CC(C)(N)c1cc(-c2cccc(-c3csc(NC(=O)CNC(=O)c4ccc(N)cc4)n3)c2)ccn1` [Compound 211, 4-amino-N-[2-[[4-[3-[2-(1-amino-1-methyl-ethyl)-4-pyridyl]phenyl]thiazol-2-yl]amino]-2-oxo-ethyl]benzamide]: at BRG-1, the IC50 lay in the range of 100 to 1000 nM and the “BRG1 Max % Inhibition” value was >90%. In addition, at BRM, the 50% inhibitory concentration (IC50) lay in the range of 100 to 1000 nM and the “BRM Max % Inhibition” value is on record as >95%.

As a reminder, the IC50 is the concentration needed to halve the response being measured. High values mean weaker potency in that assay, low ones greater potency in that assay.
